These results are taken from patent publication US6444691B1, “1,3-disubstituted ureas as ACAT inhibitors, and method of preparing thereof” (Solvakofarma, a.s., priority 1997, dated 2002).

Experiment [1] relates to rabbit intestinal mucosa ACAT (acylCoa:cholesterol acyltransferase). Put plainly: In vitro inhibition of ACAT activity, rabbit intestinal mucosa microsomal fraction. In kind it is biochemical. The settings on record: rabbit intestinal mucosa microsomes, concentration 2 μM, versus enzyme activity in 1% dimethylsulfoxide. The method, then: (§1) The biological activity of the substances was evaluated based on the in vitro inhibition of acylCoa:cholesterol acyltransferase (ACAT) activity. The enzyme was obtained from the microsomal fraction of rat liver cells and rabbit intestinal mucosa of animals fed with cholesterol. The substrates for the enzyme reaction included exogenous oleoyl co-enzyme A and endogenous cholesterol. ^14C-oleoyl co-enzyme A conversion to ^14C-cholesteryl oleate was monitored. From the mixture of extracted lipids, cholesteryl oleate was separated using thin-layer chromatography, and was quantified radiometrically. ACAT specific activity was expressed as the amount of cholesteryl oleate formed per minute per mg microsomal protein.
(§2) Efficiency was calculated as compared to enzyme activity measured in the presence of 1% dimethylsulfoxide used as the solvent to prepare solutions of the substances tested.

The test system of experiment [2] is rat liver ACAT (acylCoa:cholesterol acyltransferase). Kind of experiment: In vitro inhibition of ACAT activity, rat liver microsomal fraction. In kind it is biochemical. The settings on record: rat liver microsomes, concentration 2 μM, versus enzyme activity in 1% dimethylsulfoxide. The procedure: as §1, §2
On the technique in general: Liver microsomes are vesicles of endoplasmic reticulum, rich in cytochrome P450 enzymes.

“1-(2,4-Dimethylphenyl)-3-((4′-nitrophenylthio)-phenyl)-urea [Example 39]”: the “Efficiency (%) mucosa (ACAT inhibition)” value in experiment [1] turned out to be 31%. The “Efficiency (%) liver (ACAT inhibition)” value in experiment [2] is recorded as 19%.
Consider “1-(2,6-Dimethylphenyl)-3-((4′-nitrophenylthio)-phenyl)-urea [Example 40]”, for which the “Efficiency (%) mucosa (ACAT inhibition)” value in experiment [1] stood at 34%. Also, the “Efficiency (%) liver (ACAT inhibition)” value in experiment [2] came to 23%.
On the same counts, the results for “1-(3-Trifluoromethylphenyl)-3-((4′-nitrophenylthio)-phenyl)-urea [Example 44]” are 45% and 34%.
On the same counts, the results for `O=C(Nc1ccc(Oc2ccc([N+](=O)[O-])cc2)cc1)Nc1ccccc1F` [Example 1, 1-(2-Fluorophenyl)-3-((4′-nitrophenoxy)-phenyl)-urea] are 32% and 15%.
As for `O=C(Nc1ccc(Oc2ccc([N+](=O)[O-])cc2)cc1)Nc1ccc(F)cc1F` [Example 2], in experiment [1], the “Efficiency (%) mucosa (ACAT inhibition)” value is recorded as 55%. Also, in experiment [2], the “Efficiency (%) liver (ACAT inhibition)” value came to 37%.
Consider `O=C(Nc1ccc(Oc2ccc([N+](=O)[O-])cc2)cc1)Nc1cc(F)ccc1F` [Example 3, 1-(2,5-Difluorophenyl)-3-((4′-nitrophenoxy)-phenyl)-urea], for which the “Efficiency (%) mucosa (ACAT inhibition)” value in experiment [1] was 58%. Moreover, in experiment [2], the “Efficiency (%) liver (ACAT inhibition)” value was found to be 49%.
Turning to `O=C(Nc1ccc(Oc2ccc([N+](=O)[O-])cc2)cc1)Nc1c(F)cccc1F` [Example 4, 1-(2,6-Difluorophenyl)-3-((4′-nitrophenoxy)-phenyl)-urea], the “Efficiency (%) mucosa (ACAT inhibition)” value in experiment [1] came out at 42%. Further, the “Efficiency (%) liver (ACAT inhibition)” value in experiment [2] turned out to be 0%.
Take `O=C(Nc1ccc(Oc2ccc([N+](=O)[O-])cc2)cc1)Nc1ccccc1Cl` [Example 5, 1-(2-Chlorophenyl)-3-((4′-nitrophenoxy)-phenyl)-urea]: in experiment [1], the “Efficiency (%) mucosa (ACAT inhibition)” value amounted to 0%. The “Efficiency (%) liver (ACAT inhibition)” value in experiment [2] is 0%.
With `O=C(Nc1ccc(Oc2ccc([N+](=O)[O-])cc2)cc1)Nc1cccc(Cl)c1Cl` [Example 6, 1-(2,3-Dichlorohenyl)-3-((4′-nitrophenoxy)-phenyl)-urea], the “Efficiency (%) mucosa (ACAT inhibition)” value in experiment [1] came to 51%. The “Efficiency (%) liver (ACAT inhibition)” value in experiment [2] came to 58%.
`O=C(Nc1ccc(Oc2ccc([N+](=O)[O-])cc2)cc1)Nc1c(Cl)cccc1Cl` [Example 7, 1-(2,6-Dichlorophenyl)-3-((4′-nitrophenoxy)-phenyl)-urea]: the “Efficiency (%) mucosa (ACAT inhibition)” value in experiment [1] is reported as 25%. Further, the “Efficiency (%) liver (ACAT inhibition)” value in experiment [2] is recorded as 20%.
For `O=C(Nc1ccc(Oc2ccc([N+](=O)[O-])cc2)cc1)Nc1cc(Cl)cc(Cl)c1` [Example 8, 1-(3,5-Dichlorophenyl)-3-((4′-nitrophenoxy)-phenyl)-urea], in that order: 0% and 0%.
Regarding `Cc1ccccc1NC(=O)Nc1ccc(Oc2ccc([N+](=O)[O-])cc2)cc1` [Example 9], in experiment [1], the “Efficiency (%) mucosa (ACAT inhibition)” value worked out at 0%. For the same molecule, in experiment [2], the “Efficiency (%) liver (ACAT inhibition)” value stood at 0%.
As to `Cc1ccc(NC(=O)Nc2ccc(Oc3ccc([N+](=O)[O-])cc3)cc2)cc1` [Example 10, 1-(4-Methylphenyl)-3-((4′-nitrophenoxy)-phenyl)-urea], the “Efficiency (%) mucosa (ACAT inhibition)” value in experiment [1] turned out to be 0%. The “Efficiency (%) liver (ACAT inhibition)” value in experiment [2] is on record as 0%.
As for `Cc1ccc(NC(=O)Nc2ccc(Oc3ccc([N+](=O)[O-])cc3)cc2)c(C)c1` [Example 11, 1-(2,4-Dimethylphenyl)-3-((4′-nitrophenoxy)-phenyl)-urea], the “Efficiency (%) mucosa (ACAT inhibition)” value in experiment [1] is on record as 0%. The “Efficiency (%) liver (ACAT inhibition)” value in experiment [2] stood at 0%.
With `Cc1cccc(C)c1NC(=O)Nc1ccc(Oc2ccc([N+](=O)[O-])cc2)cc1` [Example 12, 1-(2,6-Dimethylphenyl)-3-((4′-nitrophenoxy)-phenyl)-urea], the “Efficiency (%) mucosa (ACAT inhibition)” value in experiment [1] was 65%. For the same molecule, the “Efficiency (%) liver (ACAT inhibition)” value in experiment [2] is on record as 41%.
As to `Cc1cc(C)cc(NC(=O)Nc2ccc(Oc3ccc([N+](=O)[O-])cc3)cc2)c1` [Example 13, 1-(3,5-Dimethylphenyl)-3-((4′-nitrophenoxy)-phenyl)-urea], in experiment [1], the “Efficiency (%) mucosa (ACAT inhibition)” value was determined as 0%. Further, in experiment [2], the “Efficiency (%) liver (ACAT inhibition)” value worked out at 0%.
Take `CC(C)c1cccc(C(C)C)c1NC(=O)Nc1ccc(Oc2ccc([N+](=O)[O-])cc2)cc1` [Example 14, 1-(2,6-Di-(methylethyl)-phenyl)-3-((4′-nitrophenoxy)-phenyl)-urea]: the “Efficiency (%) mucosa (ACAT inhibition)” value in experiment [1] is recorded as 67%. Moreover, the “Efficiency (%) liver (ACAT inhibition)” value in experiment [2] turned out to be 50%.
Turning to `O=C(Nc1ccc(Oc2ccc([N+](=O)[O-])cc2)cc1)Nc1ccccc1C(F)(F)F` [Example 15, 1-(2-Trifluoromethylphenyl)-3-((4′-nitrophenoxy)-phenyl)-urea], the “Efficiency (%) mucosa (ACAT inhibition)” value in experiment [1] worked out at 42%. For the same molecule, the “Efficiency (%) liver (ACAT inhibition)” value in experiment [2] is listed as 46%.
On the same counts, the results for `O=C(Nc1ccc(Oc2ccc([N+](=O)[O-])cc2)cc1)Nc1cccc(C(F)(F)F)c1` [Example 16, 1-(3-Trifluoromethylphenyl)-3-((4′-nitrophenoxy)-phenyl)-urea] are 45% and 38%.
With `O=C(Nc1ccc(Oc2ccc([N+](=O)[O-])cc2)cc1)Nc1ccc(C(F)(F)F)cc1` [Example 17, 1-(4-Trifluoromethylphenyl)-3-((4′-nitrophenoxy)-phenyl)-urea], the “Efficiency (%) mucosa (ACAT inhibition)” value in experiment [1] was determined as 18%. In addition, in experiment [2], the “Efficiency (%) liver (ACAT inhibition)” value was 25%.
Take `O=C(Nc1ccc(Oc2ccc([N+](=O)[O-])cc2)cc1)Nc1ccccn1` [Example 18]: the “Efficiency (%) mucosa (ACAT inhibition)” value in experiment [1] amounted to 34%. Moreover, the “Efficiency (%) liver (ACAT inhibition)” value in experiment [2] amounted to 26%.
With `O=C(Nc1ccc(Oc2ccc([N+](=O)[O-])cc2)cc1)Nc1cccnc1` [Example 19], the “Efficiency (%) mucosa (ACAT inhibition)” value in experiment [1] stood at 0%. The “Efficiency (%) liver (ACAT inhibition)” value in experiment [2] was 0%.
Turning to `O=C(Nc1ccncc1)Nc1ccc(Oc2ccc([N+](=O)[O-])cc2)cc1` [Example 20], the “Efficiency (%) mucosa (ACAT inhibition)” value in experiment [1] is on record as 17%. In addition, the “Efficiency (%) liver (ACAT inhibition)” value in experiment [2] was found to be 11%.
Consider `O=C(Nc1ccc(Oc2ccc([N+](=O)[O-])cc2)cc1)Nc1cccc2ccccc12` [Example 21], for which the “Efficiency (%) mucosa (ACAT inhibition)” value in experiment [1] is 22%. Further, in experiment [2], the “Efficiency (%) liver (ACAT inhibition)” value worked out at 14%.
As for `O=C(Nc1ccc(Oc2ccc([N+](=O)[O-])cc2)cc1)Nc1ccc2ccccc2c1` [Example 22], the “Efficiency (%) mucosa (ACAT inhibition)” value in experiment [1] is 12%. Further, the “Efficiency (%) liver (ACAT inhibition)” value in experiment [2] came out at 0%.
For `O=C(Nc1ccc(Oc2ccc([N+](=O)[O-])cc2)cc1)NC12CC3CC(CC(C3)C1)C2` [Example 23], in that order: 58% and 43%.
`O=C(Nc1ccc(Sc2ccc([N+](=O)[O-])cc2)cc1)Nc1ccc([N+](=O)[O-])cc1` [Example 24, 1-(4-Nitrophenyl)-3-((4′-nitrophenylthio)-phenyl)-urea]: in experiment [1], the “Efficiency (%) mucosa (ACAT inhibition)” value amounted to 34%. Also, the “Efficiency (%) liver (ACAT inhibition)” value in experiment [2] was found to be 0%.
As to `O=C(Nc1ccc(Sc2ccc([N+](=O)[O-])cc2)cc1)Nc1ccccc1F` [Example 25, 1-(2-Fluorophenyl)-3-((4′-nitrophenylthio)-phenyl)-urea], the “Efficiency (%) mucosa (ACAT inhibition)” value in experiment [1] came to 23%. Also, in experiment [2], the “Efficiency (%) liver (ACAT inhibition)” value stood at 0%.
For `O=C(Nc1ccc(F)cc1)Nc1ccc(Sc2ccc([N+](=O)[O-])cc2)cc1` [Example 26, 1-(4-Fluorophenyl)-3-((4′-nitrophenylthio)-phenyl)-urea], the “Efficiency (%) mucosa (ACAT inhibition)” value in experiment [1] is 27%. Further, the “Efficiency (%) liver (ACAT inhibition)” value in experiment [2] is given as 25%.
On to `O=C(Nc1ccc(Sc2ccc([N+](=O)[O-])cc2)cc1)Nc1ccc(F)cc1F` [Example 27, 1-(2,4-Difluorophenyl)-3-((4′-nitrophenylthio)-phenyl)-urea], for which the “Efficiency (%) mucosa (ACAT inhibition)” value in experiment [1] stood at 23%. In addition, in experiment [2], the “Efficiency (%) liver (ACAT inhibition)” value is given as 16%.
In the case of `O=C(Nc1ccc(Sc2ccc([N+](=O)[O-])cc2)cc1)Nc1cc(F)ccc1F` [Example 28, 1-(2,5-Difluorophenyl)-3-((4′-nitrophenylthio)-phenyl)-urea], the “Efficiency (%) mucosa (ACAT inhibition)” value in experiment [1] is given as 16%. Also, the “Efficiency (%) liver (ACAT inhibition)” value in experiment [2] came out at 0%.
For the molecule `O=C(Nc1ccc(Sc2ccc([N+](=O)[O-])cc2)cc1)Nc1c(F)cccc1F` [Example 29, 1-(2,6-Difluorophenyl)-3-((4′-nitrophenylthio)-phenyl)-urea], the “Efficiency (%) mucosa (ACAT inhibition)” value in experiment [1] worked out at 25%. Further, in experiment [2], the “Efficiency (%) liver (ACAT inhibition)” value is 11%.
For `O=C(Nc1ccc(Sc2ccc([N+](=O)[O-])cc2)cc1)Nc1ccccc1Cl` [Example 30, 1-(2-Chlorophenyl)-3-((4′-nitrophenylthio)-phenyl)-urea], in that order: 26% and 20%.
On the same counts, the results for `O=C(Nc1ccc(Cl)cc1)Nc1ccc(Sc2ccc([N+](=O)[O-])cc2)cc1` [Example 31, 1-(4-Chlorophenyl)-3-((4′-nitrophenylthio)-phenyl)-urea] are 21% and 12%.
On to `O=C(Nc1ccc(Sc2ccc([N+](=O)[O-])cc2)cc1)Nc1cccc(Cl)c1Cl` [Example 32, 1-(2,3-Dichlorophenyl)-3-((4′-nitrophenylthio)-phenyl)-urea], for which the “Efficiency (%) mucosa (ACAT inhibition)” value in experiment [1] turned out to be 0%. Further, the “Efficiency (%) liver (ACAT inhibition)” value in experiment [2] turned out to be 0%.
